According to PubChem BioAssay (NCI):
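Compound exposure: 48 hours, 5 concentrations, 96-well plates. GI50 marks 50% less growth. TGI: concentration producing complete growth inhibition.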

How the values were obtained:
Experiment in all cases: NCI tumour cell line growth inhibition, 48 h
SR leukemia = tested on: SR leukemia
TK-10 renal = tested on: TK-10 renal
ACHN renal = tested on: ACHN renal
M14 melanoma = tested on: M14 melanoma
P388 leukemia = tested on: P388 leukemia
HOP-18 NSCLC = tested on: HOP-18 NSCLC
P388/ADR leukemia = tested on: P388/ADR leukemia
MCF7 breast = tested on: MCF7 breast
MDA-MB-435 = tested on: MDA-MB-435
T-47D breast = tested on: T-47D breast
MDA-MB-231 breast = tested on: MDA-MB-231 breast

Row | SMILES | TGI (SR leukemia) | TGI (TK-10 renal) | TGI (ACHN renal) | TGI (M14 melanoma) | TGI (P388 leukemia) | TGI (HOP-18 NSCLC) | TGI (P388/ADR leukemia) | TGI (MCF7 breast) | GI50 (MDA-MB-435) | TGI (MDA-MB-435) | GI50 (T-47D breast) | TGI (T-47D breast) | GI50 (SR leukemia) | GI50 (TK-10 renal) | GI50 (ACHN renal) | GI50 (M14 melanoma) | GI50 (MDA-MB-231 breast) | TGI (MDA-MB-231 breast) | GI50 (MCF7 breast)
1 | Cn1c(=O)c2nc(NCCO)cnc2n(C)c1=O | > 100 µM | > 100 µM | > 100 µM | > 100 µM |  |  |  |  |  |  |  |  |  |  |  |  |  |  | 
2 | Cc1c(N=NN(C)C)cc[n+]([O-])c1C |  |  |  |  | > 100 µM | > 100 µM | > 100 µM | > 100 µM |  |  |  |  |  |  |  |  |  |  | 
3 | CCCCS(=O)CC(CO)NC(=O)/C=C/c1c(C)[nH]c(=O)[nH]c1=O (centres undefined) |  |  |  |  | 6.93 µM | 183 µM | 59.2 µM | 51 µM |  |  |  |  |  |  |  |  |  |  | 
4 | CC(C)[C@](O)(C(=O)OCC1=CCN2CC[C@@H](O)[C@@H]12)[C@H](C)O |  |  |  |  | > 375 µM | > 375 µM | > 375 µM | > 375 µM |  |  |  |  |  |  |  |  |  |  | 
5 | O=C(c1ccccc1)c1nn(-c2ccccc2)c2nc3nc(-c4ccccc4)cc(=O)n3nc12 | 40.4 µM | > 100 µM | > 100 µM | 81.4 µM |  |  |  |  | 18.1 µM | 48.3 µM | 28.9 µM | 99.5 µM | 17.6 µM | 40.3 µM | 37.1 µM | 27.3 µM | 26.2 µM | > 100 µM | 
6 | COC(=O)C1C(O)C(C)C(O)OC1C(C)C(O)C(C)/C=C\C=C(/C)C(=O)Nc1c(C)c(OC(C)=O)c2c(c1O)C(=O)C(C)=C1OCOC(/C(C)=C/C(C)=O)=C12 (centres undefined) |  |  |  |  | 12.4 µM | 28.7 µM | 39.4 µM | 26.8 µM |  |  |  |  |  |  |  |  |  |  | 
7 | O=C1CSC(C(N=Nc2ccc(Cl)cc2)c2nc3ccccc3[nH]2)=N1 (centres undefined) | > 100 µM | > 100 µM | > 100 µM | > 100 µM |  |  |  |  |  |  |  |  |  |  |  |  |  |  | 
8 | C[C@]12CCc3sc(-c4cccc(F)c4)nc3C1=CC[C@@H]1[C@@H]2CC[C@]2(C)C(=O)CC[C@@H]12 | 10.5 µM | 8.29 µM | 3.01 µM | > 100 µM |  |  |  | 4.26 µM | 2.97 µM | > 100 µM | 2 µM | 5.24 µM | 2.62 µM | 2.77 µM | 1.64 µM | 6.62 µM | 2.6 µM | 7.34 µM | 1.78 µM
